Test results reported in patent publication US10947188B2, “Small molecule ferroptosis inducers” (THE TRUSTEES OF COLUMBIA UNIVERSITY IN THE CITY OF NEW YORK, priority 2016, dated 2021).

Columns and labels:
HT-1080 = assay: Modulatory profiling: Alamar Blue viability, lethal compound cotreated with death modulator (EC50, AUC); format: cell-based; parameters: AUC, modulator HT.3MA / AUC, modulator HT.ALLN / AUC HT.ATA / AUC HT.ActD / AUC HT.BHA / AUC HT.BHT / AUC HT.BocD / AUC HT.CHX / AUC HT.Co2+ / AUC HT.DPQ / AUC HT.EGTA / AUC HT.Lmim / AUC HT.NAD+ / AUC HT.Nec-1 / AUC HT.SP600125 / AUC HT.TLCK / AUC HT.U0126: unit not given beside the values; conditions: for AUC HT.ATA: HT-1080, modulator ATA; for AUC HT.ActD: HT-1080, modulator ActD; for AUC HT.BHA: HT-1080, modulator BHA; for AUC HT.BHT: HT-1080, modulator BHT; for AUC HT.BocD: HT-1080, modulator BocD; for AUC HT.CHX: HT-1080, modulator CHX; for AUC HT.Co2+: HT-1080, modulator Co2+; for AUC HT.CspA: HT-1080, modulator CspA; for AUC HT.DPQ: HT-1080, modulator DPQ; for AUC HT.EGTA: HT-1080, modulator EGTA; for AUC HT.Gd3+: HT-1080, modulator Gd3+; for AUC HT.LNAME: HT-1080, modulator LNAME; for AUC HT.Lmim: HT-1080, modulator Lmim; for AUC HT.NAD+: HT-1080, modulator NAD+; for AUC HT.NMMA: HT-1080, modulator NMMA; for HT.atoc (AUC) / HT.bCarotene (AUC) / HT.deferox (AUC) / HT.digoxin (AUC) / HT.trolox (AUC) / HT.zVAD (AUC): HT-1080; for HT.atoc (AUC): modulator atoc; for HT.bCarotene (AUC): modulator bCarotene; for HT.deferox (AUC): modulator deferox; for HT.digoxin (AUC): modulator digoxin; for HT.trolox (AUC): modulator trolox; for HT.zVAD (AUC): modulator zVAD; for AUC HT.BHA: reference of the scale not given here; for AUC HT.EGTA: reference of the scale not given here
BJeLR = assay: as above; format: cell-based, human; parameters: AUC, modulator BJ.Gd3+ / AUC, modulator BJ.LNAME / AUC, modulator BJ.Lmin / AUC, modulator BJ.3MA / AUC, modulator BJ.ALLN / AUC, modulator BJ.Boc D / AUC, modulator BJ.CHX / AUC, modulator BJ.Co2+ / AUC, modulator BJ.Nec-1 / AUC, modulator BJ.Pepstatin / AUC, modulator BJ.TLCK / AUC, modulator BJ.atoc / AUC, modulator BJ.trolox / AUC, modulator BJ.zVAD: unit not given beside the values; conditions: BJeLR cells, modulatory profile value (AUC); for AUC, modulator BJ.3MA: lethal compound cotreated with modulator 3MA; for AUC, modulator BJ.ALLN: lethal compound cotreated with modulator ALLN; for AUC, modulator BJ.Boc D: lethal compound cotreated with modulator Boc D; for AUC, modulator BJ.CHX: lethal compound cotreated with modulator CHX; for AUC, modulator BJ.Co2+: lethal compound cotreated with modulator Co2+; for AUC, modulator BJ.DPQ: lethal compound cotreated with modulator DPQ; for AUC, modulator BJ.Gd3+: lethal compound cotreated with modulator Gd3+; for AUC, modulator BJ.LNAME: lethal compound cotreated with modulator LNAME; for AUC, modulator BJ.Lmin/NAD+: lethal compound cotreated with modulator Lmin/NAD+; for AUC, modulator BJ.Lmin: lethal compound cotreated with modulator Lmin; for AUC, modulator BJ.NAD+: lethal compound cotreated with modulator NAD+; for AUC, modulator BJ.NMMA: lethal compound cotreated with modulator NMMA; for AUC, modulator BJ.Nec-1: lethal compound cotreated with modulator Nec-1; for AUC, modulator BJ.Pepstatin: lethal compound cotreated with modulator Pepstatin; for AUC, modulator BJ.TLCK: lethal compound cotreated with modulator TLCK; for AUC, modulator BJ.3MA: reference of the scale not given here; for AUC, modulator BJ.ALLN: reference of the scale not given here; for AUC, modulator BJ.Boc D: reference of the scale not given here; for AUC, modulator BJ.CHX: reference of the scale not given here; for AUC, modulator BJ.Co2+: reference of the scale not given here; for AUC, modulator BJ.DPQ: reference of the scale not given here; for AUC, modulator BJ.Gd3+: reference of the scale not given here; for AUC, modulator BJ.LNAME: reference of the scale not given here; for AUC, modulator BJ.NAD+: reference of the scale not given here; for AUC, modulator BJ.NMMA: reference of the scale not given here; for AUC, modulator BJ.Nec-1: reference of the scale not given here; for AUC, modulator BJ.Pepstatin: reference of the scale not given here; for AUC, modulator BJ.TLCK: reference of the scale not given here

SMILES	AUC HT.ATA (HT-1080)	AUC HT.ActD (HT-1080)	AUC HT.BHA (HT-1080)	AUC HT.BHT (HT-1080)	AUC HT.BocD (HT-1080)	AUC HT.CHX (HT-1080)	AUC HT.Co2+ (HT-1080)	AUC HT.CspA (HT-1080)	AUC HT.DPQ (HT-1080)	AUC HT.EGTA (HT-1080)	AUC HT.Gd3+ (HT-1080)	AUC HT.LNAME (HT-1080)	AUC HT.Lmim (HT-1080)	AUC HT.NAD+ (HT-1080)	AUC HT.NMMA (HT-1080)	HT.atoc (AUC) (HT-1080)	HT.bCarotene (AUC) (HT-1080)	HT.deferox (AUC) (HT-1080)	HT.digoxin (AUC) (HT-1080)	HT.trolox (AUC) (HT-1080)	other results
CC1(C)CC(=O)C2=C(C1)OC1=C(C(=O)CC(C)(C)C1)C2c1ccc(O)cc1O [CIL62]	0.02941	−0.01143	−0.007393	−0.1437	0.002455	0.08707	0.03422	−0.001347	0.01017	0.04611	−0.02573	−0.003569	0.008056	−0.01689	−0.01754	0.08235	0.02726	0.1061	−0.02448	−0.03123	effect of necrostatin-1 on lethality (HT-1080; 19 μM Nec-1): suppressed by necrostatin-1; HT.zVAD (AUC) (HT-1080): −0.01794; AUC, modulator BJ.3MA (BJeLR): 0.009762; AUC, modulator BJ.ALLN (BJeLR): −0.06265; AUC, modulator BJ.Boc D (BJeLR): −0.008658; AUC, modulator BJ.CHX (BJeLR): 0.5162; AUC, modulator BJ.Co2+ (BJeLR): 0.01574; AUC, modulator BJ.DPQ (BJeLR): −0.005752; AUC, modulator BJ.Gd3+ (BJeLR): 0.002946; AUC, modulator BJ.LNAME (BJeLR): −0.02055; AUC, modulator BJ.Lmin/NAD+ (BJeLR): 0.08736; AUC, modulator BJ.Lmin (BJeLR): 0.01862; AUC, modulator BJ.NAD+ (BJeLR): 0.04149; AUC, modulator BJ.NMMA (BJeLR): −0.05556; AUC, modulator BJ.Nec-1 (BJeLR): 0.1929; AUC, modulator BJ.Pepstatin (BJeLR): 0.06831; AUC, modulator BJ.TLCK (BJeLR): −0.03175
Cc1cccc(Cn2ncc(Cl)c(Cl)c2=O)c1 [CIL60]	0.07052	0.04832	−0.0006407	−0.1303	−0.04051	0.112	−0.08003	−0.004831	0.02073	0.05296	−0.0163	0.004397	0.03464	0.01526	−0.01091	0.08708	0.04979	0.07702	−0.03602	−0.0265	HT.zVAD (AUC) (HT-1080): −0.009922; AUC, modulator BJ.3MA (BJeLR): 0.06736; AUC, modulator BJ.ALLN (BJeLR): −0.004197; AUC, modulator BJ.Boc D (BJeLR): 0.02626; AUC, modulator BJ.CHX (BJeLR): 0.1803; AUC, modulator BJ.Co2+ (BJeLR): 0.03836; AUC, modulator BJ.DPQ (BJeLR): 0.02057; AUC, modulator BJ.Gd3+ (BJeLR): 0.02704; AUC, modulator BJ.LNAME (BJeLR): −0.01542; AUC, modulator BJ.Lmin/NAD+ (BJeLR): 0.05888; AUC, modulator BJ.Lmin (BJeLR): 0.04196; AUC, modulator BJ.NAD+ (BJeLR): 0.05735; AUC, modulator BJ.NMMA (BJeLR): −0.03338; AUC, modulator BJ.Nec-1 (BJeLR): 0.08176; AUC, modulator BJ.Pepstatin (BJeLR): 0.1359; AUC, modulator BJ.TLCK (BJeLR): −0.06705
CN(C)CCNC(=O)c1cc2c(s1)-c1ccc(Cl)cc1SC2 [CIL55]	0.05195	−0.0079	0.09593	0.04919	0.01568	−0.01039	0.1152	−0.007883	0.01405	0.04877	−0.01479	0.007171	0.07005	0.03996	0.004761	0.2074	0.001297	0.1108	−0.0491	0.1469	HT.zVAD (AUC) (HT-1080): 0.0266; AUC, modulator BJ.3MA (BJeLR): 0.06354; AUC, modulator BJ.ALLN (BJeLR): −0.04685; AUC, modulator BJ.Boc D (BJeLR): −0.01499; AUC, modulator BJ.CHX (BJeLR): 0.0373; AUC, modulator BJ.Co2+ (BJeLR): 0.03522; AUC, modulator BJ.DPQ (BJeLR): 0.01735; AUC, modulator BJ.Gd3+ (BJeLR): 0.003555; AUC, modulator BJ.LNAME (BJeLR): −0.02008; AUC, modulator BJ.Lmin/NAD+ (BJeLR): 0.1924; AUC, modulator BJ.Lmin (BJeLR): 0.08143; AUC, modulator BJ.NAD+ (BJeLR): 0.02772; AUC, modulator BJ.NMMA (BJeLR): −0.002759; AUC, modulator BJ.Nec-1 (BJeLR): 0.09849; AUC, modulator BJ.Pepstatin (BJeLR): 0.02873; AUC, modulator BJ.TLCK (BJeLR): 0.07378
